From patent publication US20250066341A1 (CHIESI FARMACEUTICI S.P.A., priority 2021, published 2025)

biological target: T1, human recombinant LPA1 expressed in CHO cells (Homo sapiens, UniProt Q92633); experiment: FLIPR calcium mobilization assay, LPA1 antagonism in CHO-hLPA1 cells; type: cell-based; settings: inhibition of LPA EC80 Ca2+ response, 30 min pre-incubation, expressed as range of activity
T1 construct: expressed in transfected cells; host or cells: CHO cells (CHO-hLPA1 cell line)
Description: The effectiveness of compounds of the present invention as LPA1 antagonist can be determined at the human recombinant LPA1 expressed in CHO cells, using a FLIPR assay in 384 well format.
CHO-hLPA1 cell lines are cultured in a humidified incubator at 5% C02 in DMEM/F-12 (1:1) MIXTURE with 2 mM Glutamax, supplemented with 10% of Foetal Bovine Serum, 1 mM Sodium Pyruvate, 11 mM Hepes and 1× Penicillin/Streptomycin. […] Serial dilutions (1:3 or 1:4, 11 points CRC) of compounds are performed in 100% DMSO at 200× the final concentration. […] The final concentration of DMSO in the assay will be 0.5% in each well. Medium is removed by aspiration and cells are then incubated with 30 μl of a loading solution containing 5 μM of the cytoplasmic Ca2+ indicator Cal-520 AM in Assay Buffer containing 2.5 mM probenecid for 30 min at 37° C. incubator (cell loading). The loaded cell plates are transferred into the FLIPR instrument and calcium responses are monitored during the on-line addition protocols. For testing of compounds, after the cell loading, 10 μl/well of 4× antagonists' solution was added onto the cells. After 30 min pre-incubation (at 37° C.), 10 μl/well of 5× concentrated LPA EC80 was added and Ca2+ mobilization responses was followed during the on-line addition protocol. Intracellular peak fluorescence values subtracted by baseline fluorescence are exported and analysed to determine IC50 values, respectively. The calcium response is expressed as percentage of the maximal inhibition of the EC80 agonist response.
The raw data (peak height expressed as relative fluorescence units) are normalized and transformed into “percent of inhibition”. Curve fitting and pIC50 (−LogIC50) estimations are carried out using a four-parameter logistic model using XLfit Software.

T1 sequence (Q92633 whole entry): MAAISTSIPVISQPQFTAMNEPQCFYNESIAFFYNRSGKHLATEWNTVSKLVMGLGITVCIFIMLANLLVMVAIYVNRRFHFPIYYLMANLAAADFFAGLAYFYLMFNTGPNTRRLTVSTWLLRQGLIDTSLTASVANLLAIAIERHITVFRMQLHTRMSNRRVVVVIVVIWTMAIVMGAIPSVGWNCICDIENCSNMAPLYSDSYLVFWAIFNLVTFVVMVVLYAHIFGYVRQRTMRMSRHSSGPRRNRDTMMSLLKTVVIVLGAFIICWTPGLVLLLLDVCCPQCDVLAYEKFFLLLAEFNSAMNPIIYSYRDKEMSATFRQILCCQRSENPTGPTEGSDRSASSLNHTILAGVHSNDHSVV

IC50	SMILES
< 50 nM	Cc1noc(-c2ccc(OCC3CCCCC3C(=O)O)cc2)c1NC(=O)O[C@H](C)c1ccccc1Cl (stereo partly drawn) [Compound 77, 2-((4-(4-((((R)-1-(2-chlorophenyl)ethoxy)carbonyl)amino)-3-methylisoxazol-5-yl)phenoxy)methyl)cyclohexane-1-carboxylic acid]
< 50 nM	Cc1nc(-c2onc(C)c2Nc2cncc(OC(C)C)n2)ccc1OC[C@H]1CCCC[C@@H]1C(=O)O [Compound 52, (1S,2S)-2-(((6-(4-((6-isopropoxypyrazin-2-yl)amino)-3-methylisoxazol-5-yl)-2-methylpyridin-3-yl)oxy)methyl)cyclohexane-1-carboxylic acid]
50 to 250 nM	Cc1nc(-c2onc(C)c2Nc2cncc(NC3CCCC3)n2)ccc1NC(=O)[C@H]1CCCC[C@@H]1C(=O)O [Compound 15, (1S,2S)-2-((6-(4-((6-(cyclopentylamino)pyrazin-2-yl)amino)-3-methylisoxazol-5-yl)-2-methylpyridin-3-yl)carbamoyl)cyclohexane-1-carboxylic acid]
< 50 nM	Cc1noc(-c2ccc(NC(=O)C3CCCCC3C(=O)O)cc2)c1Nc1cncc(OC(C)C)n1 (racemic) [Compound 16, 2-((4-(4-((6-isopropoxypyrazin-2-yl)amino)-3-methylisoxazol-5-yl)phenyl)carbamoyl)cyclohexane-1-carboxylic acid]
< 50 nM	Cc1nc(-c2cnn(C)c2NC(=O)O[C@H](C)c2ccccc2Cl)ccc1OC[C@H]1CCCC[C@@H]1C(=O)O [Compound 58, (1S,2S)-2-(((6-(5-((((R)-1-(2-chlorophenyl)ethoxy)carbonyl)amino)-1-methyl-1H-pyrazol-4-yl)-2-methylpyridin-3-yl)oxy)methyl)cyclohexane-1-carboxylic acid]
50 to 250 nM	Cc1nc(-c2onc(C)c2NS(=O)(=O)CCc2ccccc2F)ccc1NC(=O)[C@H]1CCCC[C@@H]1C(=O)O [Compound 24, (1S,2S)-2-((6-(4-((2-(2-fluorophenyl)ethyl)sulfonamido)-3-methylisoxazol-5-yl)-2-methylpyridin-3-yl)carbamoyl)cyclohexane-1-carboxylic acid]
< 50 nM	Cc1nc(-c2onc(C)c2CNc2nccc(-c3cccs3)n2)ccc1NC(=O)[C@H]1CCCC[C@@H]1C(=O)O [Compound 37, (1S,2S)-2-((2-methyl-6-(3-methyl-4-(((4-(thiophen-2-yl)pyrimidin-2-yl)amino)methyl)isoxazol-5-yl)pyridin-3-yl)carbamoyl)cyclohexane-1-carboxylic acid]
50 to 250 nM	Cc1nc(-c2nnn(C)c2CNC(=O)OCc2cccnc2Cl)ccc1OC[C@H]1CCCC[C@@H]1C(=O)O [Compound 64, (1S,2S)-2-(((6-(5-(((((2-chloropyridin-3-yl)methoxy)carbonyl)amino)methyl)-1-methyl-1H-1,2,3-triazol-4-yl)-2-methylpyridin-3-yl)oxy)methyl)cyclohexane-1-carboxylic acid]
50 to 250 nM	Cc1nc(-c2onc(C)c2Nc2cncc(C(F)(F)F)n2)ccc1NC(=O)[C@H]1CCCC[C@@H]1C(=O)O [Compound 4, (1S,2S)-2-((2-methyl-6-(3-methyl-4-((6-(trifluoromethyl)pyrazin-2-yl)amino)isoxazol-5-yl)pyridin-3-yl)carbamoyl)cyclohexane-1-carboxylic acid]
< 50 nM	Cc1noc(-c2ccc(OC[C@H]3CCCC[C@@H]3C(=O)O)cn2)c1NC(=O)O[C@H](C)c1ccccc1Cl [Compound 78, (1S,2S)-2-(((6-(4-((((R)-1-(2-chlorophenyl)ethoxy)carbonyl)amino)-3-methylisoxazol-5-yl)pyridin-3-yl)oxy)methyl)cyclohexane-1-carboxylic acid]
< 50 nM	Cc1nc(-c2onc(C)c2NS(=O)(=O)CCc2ccccc2Cl)ccc1NC(=O)[C@H]1CCCC[C@@H]1C(=O)O [Compound 22, (1S,2S)-2-((6-(4-((2-(2-chlorophenyl)ethyl)sulfonamido)-3-methylisoxazol-5-yl)-2-methylpyridin-3-yl)carbamoyl)cyclohexane-1-carboxylic acid]
